Some test systems named below: SK-MEL-2; HT-29; 786-0; NCI/ADR-RES; A549; RXF 393; EKVX; DU-145; HOP-62; SN12C; UACC-257; SNB-19; SF-295; M14; U-251; Hs-578T; SK-MEL-5; OVCAR-8; OVCAR-5; MDA-N.
What all share (test): NCI anticancer screen, dose series, 48 h

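Cells were grown in 96-well plates and exposed to each compound for 48 hours at five concentrations; endpoints were interpolated linearly between bracketing concentrations, or set to the highest concentration if not reached. At the GI50, growth is halved.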 Calls of active or inactive are those of the source. Cut-off read from the data, not from the text of the source: active = GI50 up to about 1.1 µM and inactive = higher. A value given as a limit tells only on which side of the number the result lay.

With `OCC1OC(n2cnc3c(Cl)nc(Nc4ccc(Cl)c(Cl)c4)nc32)CC1O` (centres undefined), the GI50 in the assay with SK-MEL-2 was 9.53 µM (inactive); with HT-29 it was 7.71 µM (inactive); in the assay with 786-0, 8.73 µM (inactive); with NCI/ADR-RES it was 10.4 µM (inactive); in the assay on A549, 14.2 µM (inactive); in the assay with RXF 393, 10.3 µM (inactive). Moreover, the GI50 in the assay on EKVX was 9.98 µM (inactive); in the assay on DU-145, 11.6 µM (inactive); in the assay with HOP-62 it was 10.5 µM (inactive); with SN12C it was 10.5 µM (inactive); with UACC-257, 9.48 µM (inactive); in the assay with SNB-19 it was 20.5 µM (inactive). Besides, the GI50 was 7.98 µM (inactive) in the assay with SF-295; 10.7 µM (inactive) in the assay with M14; 10.2 µM (inactive) with U-251; 13.2 µM (inactive) with Hs-578T; 8.34 µM (inactive) with SK-MEL-5; 10.3 µM (inactive) in the assay on OVCAR-8. Moreover, the GI50 in the assay with OVCAR-5 was 13.8 µM (inactive).

Consider `[O-][n+]1c2ccccc2[n+]([O-])c2cc(Br)ccc21`, for which the GI50 in the assay on SK-MEL-2 was 29 µM (inactive); in the assay with HT-29, 18.6 µM (inactive); in the assay with 786-0, 10.1 µM (inactive); in the assay on NCI/ADR-RES, 16.1 µM (inactive); in the assay with A549 it was 10.8 µM (inactive); with RXF 393, 18.1 µM (inactive). The GI50 in the assay with EKVX is 16.7 µM (inactive); with DU-145 it was 24.7 µM (inactive); with HOP-62, 45 µM (inactive); in the assay with SN12C, 21.5 µM (inactive); with UACC-257, 17.9 µM (inactive); in the assay with SNB-19, 33.2 µM (inactive). The GI50 in the assay on SF-295 is 20.6 µM (inactive); in the assay on M14, 17.2 µM (inactive); in the assay with U-251 it was 14.6 µM (inactive); in the assay on Hs-578T, 35.2 µM (inactive); in the assay with SK-MEL-5, 13.3 µM (inactive); in the assay with OVCAR-8, 14.8 µM (inactive). Also, the GI50 in the assay with OVCAR-5 was 27.8 µM (inactive).

With `Cc1cccc2sc(NC(=O)c3cc([N+](=O)[O-])ccc3Cl)nc12`, the GI50 was 4.46 µM (inactive) with SK-MEL-2; 1.85 µM (inactive) in the assay on HT-29; 1.89 µM (inactive) with 786-0; 2.76 µM (inactive) in the assay on NCI/ADR-RES; 1.56 µM (inactive) with MDA-N; 3.86 µM (inactive) with A549. The GI50 in the assay on RXF 393 was 2.01 µM (inactive); in the assay with EKVX it was 11.4 µM (inactive); with DU-145, 3.33 µM (inactive); with HOP-62, 11.8 µM (inactive); in the assay with SN12C it was 1.55 µM (inactive); in the assay with UACC-257, 6.84 µM (inactive). In addition, the GI50 with SNB-19 is 7.78 µM (inactive); in the assay on SF-295, 4.82 µM (inactive); in the assay on M14, 1.77 µM (inactive); with U-251 it was 2.85 µM (inactive); with SK-MEL-5, 1.84 µM (inactive); in the assay on OVCAR-8, 2.36 µM (inactive). Moreover, in the assay on OVCAR-5, the GI50 was 5.87 µM (inactive).

For the compound `O=C(NCCCCN(CCCNC(=O)C(F)(F)F)Cc1ccccc1)C(F)(F)F`, the GI50 in the assay on SK-MEL-2, in the assay on HT-29, in the assay with 786-0, in the assay with NCI/ADR-RES, in the assay on A549 and in the assay on RXF 393 was > 100 µM (inactive) throughout. Further, the GI50 in the assay with EKVX, in the assay on DU-145, in the assay on HOP-62, in the assay with SN12C, in the assay on UACC-257 and in the assay with SNB-19 was > 100 µM (inactive) each time. Further, the GI50 in the assay on SF-295, in the assay on M14, in the assay on U-251, in the assay with Hs-578T, with SK-MEL-5 and with OVCAR-8 was > 100 µM (inactive) throughout. In the assay on OVCAR-5, the GI50 was > 100 µM (inactive).

In the case of `CC(CC=O)Nc1nn2c(=O)c3ccccc3nc2s1` (centres undefined), the GI50 in the assay with SK-MEL-2, in the assay on HT-29, in the assay with 786-0, in the assay with NCI/ADR-RES, with A549 and with RXF 393 was > 100 µM (inactive) throughout. The GI50 with EKVX, in the assay on DU-145, in the assay on HOP-62, in the assay with SN12C, in the assay with UACC-257 and with SNB-19 was > 100 µM (inactive) each time. The GI50 in the assay with SF-295, in the assay on M14, in the assay on U-251, in the assay with Hs-578T, with SK-MEL-5 and with OVCAR-8 was > 100 µM (inactive) throughout. Besides, the GI50 in the assay with OVCAR-5 is > 100 µM (inactive).

Consider `Cl/C(=C\C=N\c1ccc(I)cc1)c1ccc2ccccc2c1`, for which the GI50 is 18.9 µM (inactive) with SK-MEL-2; 40.5 µM (inactive) in the assay on HT-29; 17.6 µM (inactive) in the assay on 786-0; 14.9 µM (inactive) in the assay on NCI/ADR-RES; 33.3 µM (inactive) in the assay with A549; 22.2 µM (inactive) with RXF 393. Moreover, the GI50 was 36.2 µM (inactive) in the assay on EKVX; 21.4 µM (inactive) in the assay with DU-145; 17.7 µM (inactive) in the assay with HOP-62; 17.9 µM (inactive) with SN12C; 15.4 µM (inactive) in the assay on UACC-257; 18.3 µM (inactive) in the assay with SNB-19. Also, the GI50 with SF-295 is 19.1 µM (inactive); in the assay with M14, 14.3 µM (inactive); in the assay on U-251, 16.4 µM (inactive); in the assay on Hs-578T, 28.4 µM (inactive); with SK-MEL-5, 18 µM (inactive); in the assay with OVCAR-8 it was 17.4 µM (inactive). In the assay on OVCAR-5, the GI50 is 34.6 µM (inactive).

Turning to `Cc1c(C)c(C)n(C2OC(CO)C(O)C(O)C2O)c(=S)c1C#N` (centres undefined), the GI50 in the assay on SK-MEL-2, in the assay on HT-29, in the assay on 786-0, in the assay with NCI/ADR-RES, in the assay with MDA-N and in the assay with A549 was > 100 µM (inactive) throughout. Further, the GI50 in the assay on RXF 393, in the assay with EKVX, in the assay on DU-145, in the assay with HOP-62, in the assay with SN12C and in the assay on UACC-257 was > 100 µM (inactive) throughout. In addition, the GI50 in the assay on SNB-19, in the assay on SF-295, in the assay on M14, in the assay on U-251, in the assay with SK-MEL-5 and with OVCAR-8 was > 100 µM (inactive) throughout. Besides, in the assay on OVCAR-5, the GI50 was > 100 µM (inactive).

For `COc1cc(S(=O)(=O)N/N=C/c2cc(Br)c(O)c(OC)c2)c(OC)cc1NC(C)=O`, the GI50 with SK-MEL-2 is > 100 µM (inactive); in the assay on HT-29, 34 µM (inactive); with 786-0 it was 27 µM (inactive); in the assay with NCI/ADR-RES it was > 100 µM (inactive); with MDA-N it was 83.6 µM (inactive); with A549, > 100 µM (inactive). The GI50 in the assay with RXF 393 was 42.6 µM (inactive); in the assay on EKVX, 55.5 µM (inactive); in the assay on DU-145, 85.9 µM (inactive); with HOP-62 it was > 100 µM (inactive); in the assay on SN12C, 73.8 µM (inactive); in the assay with UACC-257, > 100 µM (inactive). For the same compound, the GI50 was > 100 µM (inactive) in the assay on SNB-19; > 100 µM (inactive) in the assay with SF-295; > 100 µM (inactive) with M14; > 100 µM (inactive) in the assay on U-251; 87.7 µM (inactive) in the assay on SK-MEL-5; > 100 µM (inactive) with OVCAR-8. For the same compound, in the assay on OVCAR-5, the GI50 is > 100 µM (inactive).

On to `Cc1ccnc2nc(-c3ccc4ccccc4c3)cc(O)c12`, for which the GI50 in the assay on SK-MEL-2 was 0.865 µM (active); with HT-29, 0.8 µM (active); in the assay on 786-0, 1.52 µM (inactive); with NCI/ADR-RES, 1.3 µM (inactive); in the assay with A549 it was 1.4 µM (inactive); in the assay with EKVX, 4.36 µM (inactive). The GI50 in the assay on DU-145 was 4.1 µM (inactive); in the assay with HOP-62 it was 2.08 µM (inactive); in the assay on SN12C, 4.01 µM (inactive); in the assay with UACC-257, 6.75 µM (inactive); with SNB-19 it was 3.77 µM (inactive); in the assay with M14 it was 1.22 µM (inactive). The values for the GI50 with Hs-578T, with OVCAR-8 and in the assay on OVCAR-5 were 1.44 µM (inactive), 2.83 µM (inactive) and 6.3 µM (inactive), respectively.

With `C[C@H]1O[C@@H](C(C)(C)C)OC(=O)[C@@H]1C(OC(=O)c1ccccc1)c1cccc2ccccc12` (some centres undefined), the GI50 was > 100 µM (inactive) with SK-MEL-2; > 100 µM (inactive) in the assay on HT-29; > 100 µM (inactive) in the assay on 786-0; 56.1 µM (inactive) with NCI/ADR-RES; > 100 µM (inactive) with MDA-N; > 100 µM (inactive) in the assay on A549. The GI50 in the assay with RXF 393, with EKVX, with HOP-62, in the assay on SN12C, with UACC-257 and in the assay on SNB-19 was > 100 µM (inactive) in each case. The GI50 in the assay with SF-295 is > 100 µM (inactive); in the assay on M14, > 100 µM (inactive); in the assay with U-251, > 100 µM (inactive); with Hs-578T, 40.7 µM (inactive); with SK-MEL-5, > 100 µM (inactive); with OVCAR-8 it was > 100 µM (inactive). The GI50 in the assay on OVCAR-5 is > 100 µM (inactive).

With `COc1cc2c(c(O)c1OC)C(=O)C(Cc1ccc(O)cc1)CO2` (centres undefined), the GI50 in the assay with SK-MEL-2 is 30.8 µM (inactive); with HT-29 it was 75.7 µM (inactive); with 786-0, 32.9 µM (inactive); in the assay on NCI/ADR-RES, 10.5 µM (inactive); with A549, 23.8 µM (inactive); in the assay on RXF 393 it was 13 µM (inactive). The GI50 is 39.8 µM (inactive) in the assay on DU-145; 27.2 µM (inactive) in the assay on HOP-62; 36.3 µM (inactive) in the assay on SN12C; 54.2 µM (inactive) in the assay on UACC-257; 20.3 µM (inactive) with SNB-19; 5.46 µM (inactive) with SF-295. Besides, the GI50 in the assay on M14 is 23.1 µM (inactive); in the assay on U-251 it was 29.5 µM (inactive); in the assay with Hs-578T, 14.4 µM (inactive); in the assay on SK-MEL-5, 26.5 µM (inactive); in the assay on OVCAR-8, 38.2 µM (inactive); in the assay on OVCAR-5 it was 48.3 µM (inactive).

The values are drawn from ChEMBL document CHEMBL1201862, “PubChem BioAssay data set” (2004).
